Data reported in patent US20100298141A1, “SUBSTITUTED PYRIDINE N-OXIDE HERBICIDES” (E. I. DU PONT DE NEMOURS AND COMPANY, priority 2007, published 2010).

How the values were obtained:
giant foxtail = assay: Test A pre-/postemergence greenhouse test; assay type: in vivo, Setaria faberi; conditions: for Plant response rating, Foxtail, Giant: 0 to 100 scale where 0 is no effect and 100 is complete control; for Foxtail, Giant plant response rating: 0 to 100 scale
Outline: (§1)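 Sowing in loam/sand; same-day pre (directed soil spray) and post (foliar, 1–2 leaf, 2–10 cm) treatment with surfactant-containing non-phytotoxic solvent formulation; ~10 days in greenhouse; eye-scored injury against untreated plants.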

barnyardgrass [1] = assay: Test C flooded paddy test; assay type: in vivo, Echinochloa crus-galli; conditions: Flood
Outline: (§2)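 Flooded 3 cm over soil; compound into paddy water; depth kept constant. Greenhouse 13–15 d.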

wheat = assay: Test A pre-/postemergence greenhouse test; assay type: in vivo, Triticum aestivum; conditions: for Plant response rating, Wheat: 0 to 100 scale where 0 is no effect and 100 is complete control; for Wheat plant response rating: 0 to 100 scale
Outline: as §1

duck salad = assay: Test C flooded paddy test; assay type: in vivo, Heteranthera limosa; conditions: Flood
Outline: as §2

barnyardgrass [2] = assay: Test A pre-/postemergence greenhouse test; assay type: in vivo, Echinochloa crus-galli; conditions: for Plant response rating, Barnyardgrass: 0 to 100 scale where 0 is no effect and 100 is complete control; for Barnyardgrass plant response rating: 0 to 100 scale
Outline: as §1

corn = assay: Test A pre-/postemergence greenhouse test; assay type: in vivo, Zea mays; conditions: for Plant response rating, Corn: 0 to 100 scale where 0 is no effect and 100 is complete control; for Corn plant response rating: 0 to 100 scale
Outline: as §1

rice = assay: Test C flooded paddy test; assay type: in vivo, Oryza sativa; conditions: Flood
Outline: as §2

redroot pigweed = assay: Test A pre-/postemergence greenhouse test; assay type: in vivo, Amaranthus retroflexus; conditions: for Plant response rating, Pigweed: 0 to 100 scale where 0 is no effect and 100 is complete control; for Pigweed plant response rating: 0 to 100 scale
Outline: as §1

umbrella sedge = assay: Test C flooded paddy test; assay type: in vivo, Cyperus difformis; conditions: Flood
Outline: as §2

velvetleaf = assay: Test A pre-/postemergence greenhouse test; assay type: in vivo, Abutilon theophrasti; conditions: for Plant response rating, Velvetleaf: 0 to 100 scale where 0 is no effect and 100 is complete control; for Velvetleaf plant response rating: 0 to 100 scale
Outline: as §1

crabgrass = assay: Test A pre-/postemergence greenhouse test; assay type: in vivo, Digitaria sanguinalis; conditions: for Plant response rating, Crabgrass, Large: 0 to 100 scale where 0 is no effect and 100 is complete control; for Crabgrass, Large plant response rating: 0 to 100 scale
Outline: as §1

morningglory = assay: Test A pre-/postemergence greenhouse test; assay type: in vivo, Ipomoea spp.; conditions: for Plant response rating, Morningglory: 0 to 100 scale where 0 is no effect and 100 is complete control; for Morningglory plant response rating: 0 to 100 scale
Outline: as §1

[3] = Postemergence, 500 g ai/ha, 0 is no effect, 100 is complete control
[4] = Preemergence, 125 g ai/ha, 0 no effect, 100 complete control
[5] = Preemergence, 500 g ai/ha, 0 no effect, 100 complete control
[6] = 31 g ai/ha, scale 0 to 100 (0 no effect, 100 complete control)
[7] = 62 g ai/ha, scale 0 to 100 (0 no effect, 100 complete control)
[8] = 125 g ai/ha, scale 0 to 100, 0 no effect, 100 complete control, 13 to 15 days
[9] = 250 g ai/ha, scale 0 to 100, 0 no effect, 100 complete control, 13 to 15 days
[10] = Postemergence, 125 g ai/ha, 0 is no effect, 100 is complete control
[11] = 62 g ai/ha, scale 0 to 100, 0 no effect, 100 complete control, 13 to 15 days

## CCOc1ccc(S(=O)(=O)Cc2c(C(F)(F)F)nn(C)c2OC(F)F)[n+]([O-])c1 [Compound 105]
Giant foxtail; Postemergence, 125 g ai/ha
  Plant response rating, Foxtail, Giant: 10
Giant foxtail; [3]
  Foxtail, Giant plant response rating: 60
Giant foxtail; [4]
  Foxtail, Giant plant response rating: 40
Giant foxtail; [5]
  Foxtail, Giant plant response rating: 50
Barnyardgrass [1]; [6]
  Plant response rating, Barnyardgrass: 0
Barnyardgrass [1]; [7]
  Plant response rating, Barnyardgrass: 0
Barnyardgrass [1]; [8]
  Plant response rating, Barnyardgrass: 0
Barnyardgrass [1]; [9]
  Plant response rating, Barnyardgrass: 0
wheat; Postemergence, 125 g ai/ha
  Plant response rating, Wheat: 0
wheat; [3]
  Wheat plant response rating: 0
wheat; [4]
  Wheat plant response rating: 0
wheat; [5]
  Wheat plant response rating: 0
Duck salad; [6]
  Plant response rating, Ducksalad: 0
Duck salad; [7]
  Plant response rating, Ducksalad: 0
Duck salad; [8]
  Plant response rating, Ducksalad: 0
Duck salad; [9]
  Plant response rating, Ducksalad: 0
Barnyardgrass [2]; Postemergence, 125 g ai/ha
  Plant response rating, Barnyardgrass: 10
Barnyardgrass [2]; [3]
  Barnyardgrass plant response rating: 60
Barnyardgrass [2]; [4]
  Barnyardgrass plant response rating: 10
Barnyardgrass [2]; [5]
  Barnyardgrass plant response rating: 30
corn; Postemergence, 125 g ai/ha
  Plant response rating, Corn: 0
corn; [3]
  Corn plant response rating: 0
corn; [4]
  Corn plant response rating: 0
corn; [5]
  Corn plant response rating: 0
rice; [6]
  Plant response rating, Rice: 0
rice; [7]
  Plant response rating, Rice: 0
rice; [8]
  Plant response rating, Rice: 0
rice; [9]
  Plant response rating, Rice: 0
Redroot pigweed; Postemergence, 125 g ai/ha
  Plant response rating, Pigweed: 0
Redroot pigweed; [3]
  Pigweed plant response rating: 0
Redroot pigweed; [4]
  Pigweed plant response rating: 0
Redroot pigweed; [5]
  Pigweed plant response rating: 0
Umbrella sedge; [6]
  Plant response rating, Sedge, Umbrella: 0
Umbrella sedge; [7]
  Plant response rating, Sedge, Umbrella: 0
Umbrella sedge; [8]
  Plant response rating, Sedge, Umbrella: 0
Umbrella sedge; [9]
  Plant response rating, Sedge, Umbrella: 0
velvetleaf; Postemergence, 125 g ai/ha
  Plant response rating, Velvetleaf: 0
velvetleaf; [3]
  Velvetleaf plant response rating: 0
velvetleaf; [4]
  Velvetleaf plant response rating: 0
velvetleaf; [5]
  Velvetleaf plant response rating: 0
crabgrass; Postemergence, 125 g ai/ha
  Plant response rating, Crabgrass, Large: 10
crabgrass; [3]
  Crabgrass, Large plant response rating: 70
crabgrass; [4]
  Crabgrass, Large plant response rating: 40
crabgrass; [5]
  Crabgrass, Large plant response rating: 70
morningglory; Postemergence, 125 g ai/ha
  Plant response rating, Morningglory: 0
morningglory; [3]
  Morningglory plant response rating: 30
morningglory; [4]
  Morningglory plant response rating: 10
morningglory; [5]
  Morningglory plant response rating: 40

## Cn1nc(C(F)(F)F)c(CS(=O)(=O)c2cc(Br)cc[n+]2[O-])c1Cl [Compound 32]
Giant foxtail; [10]
  Foxtail, Giant plant response rating: 0
Giant foxtail; [3]
  Foxtail, Giant plant response rating: 0
Giant foxtail; [4]
  Foxtail, Giant plant response rating: 0
Giant foxtail; Preemergence, 500 g ai/ha
  Plant response rating, Foxtail, Giant: 70
Barnyardgrass [1]; [6]
  Plant response rating, Barnyardgrass: 0
Barnyardgrass [1]; [11]
  Plant response rating, Barnyardgrass: 0
Barnyardgrass [1]; [8]
  Plant response rating, Barnyardgrass: 0
Barnyardgrass [1]; [9]
  Plant response rating, Barnyardgrass: 0
wheat; [10]
  Wheat plant response rating: 0
wheat; [3]
  Wheat plant response rating: 0
wheat; [4]
  Wheat plant response rating: 0
wheat; Preemergence, 500 g ai/ha
  Plant response rating, Wheat: 30
Duck salad; [6]
  Plant response rating, Ducksalad: 0
Duck salad; [11]
  Plant response rating, Ducksalad: 0
Duck salad; [8]
  Plant response rating, Ducksalad: 0
Duck salad; [9]
  Plant response rating, Ducksalad: 50
Barnyardgrass [2]; [10]
  Barnyardgrass plant response rating: 0
Barnyardgrass [2]; [3]
  Barnyardgrass plant response rating: 30
Barnyardgrass [2]; [4]
  Barnyardgrass plant response rating: 0
Barnyardgrass [2]; Preemergence, 500 g ai/ha
  Plant response rating, Barnyardgrass: 60
corn; [10]
  Corn plant response rating: 0
corn; [3]
  Corn plant response rating: 0
corn; [4]
  Corn plant response rating: 0
corn; Preemergence, 500 g ai/ha
  Plant response rating, Corn: 20
rice; [6]
  Plant response rating, Rice: 0
rice; [11]
  Plant response rating, Rice: 0
rice; [8]
  Plant response rating, Rice: 0
rice; [9]
  Plant response rating, Rice: 0
Redroot pigweed; [10]
  Pigweed plant response rating: 0
Redroot pigweed; [3]
  Pigweed plant response rating: 0
Redroot pigweed; [4]
  Pigweed plant response rating: 0
Redroot pigweed; Preemergence, 500 g ai/ha
  Plant response rating, Pigweed: 100
Umbrella sedge; [6]
  Plant response rating, Sedge, Umbrella: 0
Umbrella sedge; [11]
  Plant response rating, Sedge, Umbrella: 0
Umbrella sedge; [8]
  Plant response rating, Sedge, Umbrella: 0
Umbrella sedge; [9]
  Plant response rating, Sedge, Umbrella: 50
velvetleaf; [10]
  Velvetleaf plant response rating: 0
velvetleaf; [3]
  Velvetleaf plant response rating: 0
velvetleaf; [4]
  Velvetleaf plant response rating: 0
velvetleaf; Preemergence, 500 g ai/ha
  Plant response rating, Velvetleaf: 0
crabgrass; [10]
  Crabgrass, Large plant response rating: 0
crabgrass; [3]
  Crabgrass, Large plant response rating: 0
crabgrass; [4]
  Crabgrass, Large plant response rating: 0
crabgrass; Preemergence, 500 g ai/ha
  Plant response rating, Crabgrass, Large: 0
morningglory; [10]
  Morningglory plant response rating: 0
morningglory; [3]
  Morningglory plant response rating: 10
morningglory; [4]
  Morningglory plant response rating: 0
morningglory; Preemergence, 500 g ai/ha
  Plant response rating, Morningglory: 0
